For one assay, the system named is MV4;11 cells. Briefly: Cell viability assay (CellTiter-Glo) in MV4;11 cells. The following applies: read-out: MV4. The format is cell-based. How it is done:
(§1) Cell Culture: RS4;11, MV4;11, MOLM-13 and other cells were cultured at 37° C. with 5% CO2 in RPMI 1640 or DMEM Medium supplemented with 10% fetal bovine serum. Cells were authenticated using the short tandem repeat (STR) assays. Mycoplasma test results were negative.
Cell viability assays: Cells were seeded at a density of 5000 cells per well in 96-well assay plates and treated with test compounds following a 8-point or 12-point 3-fold serial dilution. Three days later, cell viability was determined using the CellTiter-Glo assay kit according to the manufacturer's instructions. The dose-response curves were determined and IC50 values were calculated using the GraphPad Prism software following a nonlinear regression (least squares fit) method.
The IC50 values (nM) of each compound were determined in MV4;11 and MOLM-13 cells with or without gilteritinib (10 nM for MV4;11; and 20 nM for MOML-13) as described in the Materials and Methods subsection and calculated using the GraphPad Prism 5.0 software.
(In general: ATP-based viability assays read luminescence as a measure of living cells.)

The subject of the next assay is MOLM-13 cells. Briefly: Cell viability assay (CellTiter-Glo) in MOLM-13 cells. In kind it is cell-based. The procedure:
as §1
Cell viability assays: Cells were seeded at a density of 5000 cells per well in 96-well assay plates and treated with test compounds following a 8-point or 12-point 3-fold serial dilution. Three days later, cell viability was determined using the CellTiter-Glo assay kit according to the manufacturer's instructions. The dose-response curves were determined and IC50 values were calculated using the GraphPad Prism software following a nonlinear regression (least squares fit) method. […]

The mark [1] stands for this setting: Homo sapiens, MV4-11, 72 h, MV4;11 cells, compound alone, three days, 11 IC50.
Setting [2] is: MV4;11 cells, with 10 nM gilteritinib, three days, 11 IC50 (nM) + 10 nM Gil.
The mark [3] stands for this setting: Homo sapiens, 72 h, MOLM-13 cells, compound alone, three days, read-out: MOLM-13 IC50.
Where [4] appears, read: MOLM-13 cells, with gilteritinib, three days, read-out: MOLM-13 IC50 (nM) + 10 nM Gil.

The structures appear in SMILES notation. Like-named read-outs stand apart in the source and are kept apart here.

With `O=C1CCC(N2C(=O)c3ccc(NCC4CC(n5cc(-c6cnc7c(NCC(O)CO)cccc7n6)c(C6CC6)n5)C4)cc3C2=O)C(=O)N1` (stereo not drawn) [GS-702, 5-(((trans-3-(3-cyclopropyl-4-(5-((2,3-dihydroxypropyl)amino)quinoxalin-2-yl)-1-pyrazol-1-yl)cyclobutyl)methyl)amino)-2-(2,6-dioxopiperidin-3-yl)isoindoline-1,3-dione], the IC50 in the assay on MV4;11 cells (setting [1]), in the assay on MV4;11 cells (setting [2]), with MOLM-13 cells (setting [3]) and in the assay on MOLM-13 cells (setting [4]) was below 10 nM throughout.

As for `Cc1ccc2c(C3CC3)nn([C@H]3C[C@H](CNc4ccc5c(c4)C(=O)N(C4CCC(=O)NC4=O)C5=O)C3)c2n1` (stereo partly drawn) [GS-672, 5-(((Trans-3-(3-cyclopropyl-6-methyl-1H-pyrazolo[3,4-b]pyridin-1-yl)cyclobutyl)methyl)amino)-2-(2,6-dioxopiperidin-3-yl)isoindoline-1,3-dione], the values for the IC50 with MV4;11 cells (setting [1]), in the assay with MOLM-13 cells (setting [3]) and in the assay with MOLM-13 cells (setting [4]) were above 1000 nM, above 1000 nM and 100 to 1000 nM, respectively.

`CC(C)n1ncc2cnc(-c3cn([C@H]4C[C@H](CNc5ccc6c(c5)C(=O)N(C5CCC(=O)NC5=O)C6=O)C4)nc3C(F)F)cc21` (stereo partly drawn) [GS-656, 5-(((Trans-3-(3-(difluoromethyl)-4-(1-isopropyl-1H-pyrazolo[4,3-c]pyridin-6-yl)-1H-pyrazol-1-yl)cyclobutyl)methyl)amino)-2-(2,6-dioxopiperidin-3-yl)isoindoline-1,3-dione]: the IC50 in the assay with MV4;11 cells (setting [1]) is 10 to 100 nM; with MV4;11 cells (setting [2]), 10 to 100 nM; in the assay on MOLM-13 cells (setting [3]), 100 to 1000 nM; in the assay with MOLM-13 cells (setting [4]) it was 10 to 100 nM.

As to `Cc1cccc(-c2cn(C3CC4(CC(CNc5ccc6c(c5)C(=O)N(C5CCC(=O)NC5=O)C6=O)C4)C3)nc2C2CC2)n1` (stereo not shown) [GS-775], the IC50 is 100 to 1000 nM in the assay on MV4;11 cells (setting [1]), 100 to 1000 nM in the assay on MV4;11 cells (setting [2]), above 1000 nM in the assay on MOLM-13 cells (setting [3]) and 100 to 1000 nM in the assay with MOLM-13 cells (setting [4]).

As to `CC(C)n1cc2c(-c3cn([C@H]4C[C@H](CNc5ccc6c(c5)C(=O)N(C5CCC(=O)NC5=O)C6=O)C4)nc3C3CC3)ncc(F)c2n1` (stereo partly drawn) [GS-743, 5-(((Trans-3-(3-cyclopropyl-4-(7-fluoro-2-isopropyl-2H-pyrazolo[4,3-c]pyridin-4-yl)-1H-pyrazol-1-yl)cyclobutyl)methyl)amino)-2-(2,6-dioxopiperidin-3-yl)isoindoline-1,3-dione], the IC50 in the assay with MV4;11 cells (setting [1]), with MV4;11 cells (setting [2]), with MOLM-13 cells (setting [3]) and in the assay on MOLM-13 cells (setting [4]) was below 10 nM each time.

On to `Cn1ncc2cnc(-c3cn([C@H]4C[C@H](CNc5ccc6c(c5)C(=O)N(C5CCC(=O)NC5=O)C6=O)C4)nc3C(F)F)cc21` (stereo partly drawn) [GS-657, 5-(((Trans-3-(3-(difluoromethyl)-4-(1-methyl-1H-pyrazolo[4,3-c]pyridin-6-yl)-1H-pyrazol-1-yl)cyclobutyl)methyl)amino)-2-(2,6-dioxopiperidin-3-yl)isoindoline-1,3-dione], for which the IC50 is 10 to 100 nM with MV4;11 cells (setting [1]), below 10 nM in the assay on MV4;11 cells (setting [2]), 10 to 100 nM with MOLM-13 cells (setting [3]) and below 10 nM with MOLM-13 cells (setting [4]).

As to `O=C1CCC(N2C(=O)c3ccc(NC[C@H]4C[C@H](n5cc(Nc6ccncc6)c(C6CC6)n5)C4)cc3C2=O)C(=O)N1` (stereo partly drawn) [GS-671, 5-(((Trans-3-(3-cyclopropyl-4-(pyridin-4-ylamino)-1H-pyrazol-1-yl)cyclobutyl)methyl)amino)-2-(2,6-dioxopiperidin-3-y)isoindoline-1,3-dione], the IC50 in the assay on MV4;11 cells (Homo sapiens, MV4-11, 72 h, 11 IC50 (nM)) was above 1000 nM; in the assay on MOLM-13 cells (Homo sapiens, MOLM-13, 72 h, read-out: MOLM-13 IC50 (nM)), above 1000 nM; with MOLM-13 cells (read-out: MOLM-13 IC50 (nM) + 10 nM Gil, MOLM-13 cells, with gilteritinib, three days) it was 100 to 1000 nM.

Consider `Cc1cccc2cnn([C@H]3C[C@H](CNc4ccc5c(c4)C(=O)N(C4CCC(=O)NC4=O)C5=O)C3)c12` (stereo partly drawn) [GS-693, 2-(2,6-Dioxopiperidin-3-yl)-5-(((trans-3-(7-methyl-1H-indazol-1-yl)cyclobutyl)methyl)amino)isoindoline-1,3-dione], for which the IC50 was above 1000 nM in the assay on MV4;11 cells (setting [1]), 100 to 1000 nM with MV4;11 cells (setting [2]), above 1000 nM with MOLM-13 cells (setting [3]) and 100 to 1000 nM with MOLM-13 cells (setting [4]).

On to `Cc1nc(-c2cn([C@H]3C[C@H](CNc4ccc5c(c4)C(=O)N(C4CCC(=O)NC4=O)C5=O)C3)nc2C2CC2)cc2c1cnn2C` (stereo partly drawn) [GS-747, 5-(((Trans-3-(3-cyclopropyl-4-(1,4-dimethyl-1H-pyrazolo[4,3-c]pyridin-6-yl)-1H-pyrazol-1-yl)cyclobutyl)methyl)amino)-2-(2,6-dioxopiperidin-3-yl)isoindoline-1,3-dione], for which the IC50 in the assay with MV4;11 cells (setting [1]) was 10 to 100 nM; in the assay with MV4;11 cells (setting [2]) it was below 10 nM; in the assay with MOLM-13 cells (setting [3]) it was 10 to 100 nM; with MOLM-13 cells (setting [4]) it was below 10 nM.

As to `O=C1CCC(N2C(=O)c3ccc(NC[C@H]4C[C@H](n5cc(-c6ccc7cc[nH]c7n6)c(C6CC6)n5)C4)cc3C2=O)C(=O)N1` (stereo partly drawn) [GS-721, 5-(((Trans-3-(3-cyclopropyl-4-(1H-pyrrolo[2,3-b]pyridin-6-yl)-1H-pyrazol-1-yl)cyclobutyl)methyl)amino)-2-(2,6-dioxopiperidin-3-yl)isoindoline-1,3-dione], the IC50 in the assay on MV4;11 cells (setting [1]) was below 10 nM; in the assay on MV4;11 cells (setting [2]) it was below 10 nM; in the assay with MOLM-13 cells (setting [3]) it was 10 to 100 nM; with MOLM-13 cells (setting [4]), below 10 nM.

For the molecule `O=C1CCC(N2C(=O)c3ccc(NC[C@H]4C[C@H](n5nc(C6CC6)c6nccnc65)C4)cc3C2=O)C(=O)N1` (stereo partly drawn) [GS-648, 5-(((Trans-3-(3-cyclopropyl-1H-pyrazolo[3,4-b]pyrazin-1-yl)cyclobutyl)methyl)amino)-2-(2,6-dioxopiperidin-3-yl)isoindoline-1,3-dione], the IC50 with MV4;11 cells (setting [1]) was above 1000 nM; with MOLM-13 cells (setting [3]) it was above 1000 nM; in the assay with MOLM-13 cells (setting [4]), 100 to 1000 nM.

Regarding `Cc1cc(F)cnc1-c1cn([C@H]2C[C@H](CNc3ccc4c(c3)CN(C3CCC(=O)NC3=O)C4=O)C2)nc1C1CC1` (stereo partly drawn) [GS-676, 3-(5-(((Trans-3-(3-cyclopropyl-4-(5-fluoro-3-methylpyridin-2-yl)-1H-pyrazol-1-yl)cyclobutyl)methyl)amino)-1-oxoisoindolin-2-yl)piperidine-2,6-dione], the IC50 in the assay on MV4;11 cells (setting [1]), in the assay on MV4;11 cells (setting [2]), in the assay with MOLM-13 cells (setting [3]) and with MOLM-13 cells (setting [4]) was below 10 nM throughout.

As for `Cn1ncc2cnc(-c3cn([C@H]4C[C@H](CNc5ccc6c(c5)CN(C5CCC(=O)NC5=O)C6=O)C4)nc3C3CC3)cc21` (stereo partly drawn) [GS-678, 3-(5-(((Trans-3-(3-cyclopropyl-4-(1-methyl-1H-pyrazolo[4,3-c]pyridin-6-yl)-1H-pyrazol-1-yl)cyclobutyl)methyl)amino)-1-oxoisoindolin-2-yl)piperidine-2,6-dione], the IC50 in the assay with MV4;11 cells (setting [1]), in the assay on MV4;11 cells (setting [2]), in the assay with MOLM-13 cells (setting [3]) and with MOLM-13 cells (setting [4]) was below 10 nM throughout.

Take `O=C1CCC(N2C(=O)c3ccc(NC[C@H]4C[C@H](n5cc(C6CCC(O)CC6)c(C6CC6)n5)C4)cc3C2=O)C(=O)N1` (stereo partly drawn) [GS-701, 5-(((Trans-3-(3-cyclopropyl-4-(4-hydroxycyclohexyl)-1H-pyrazol-1-yl)cyclobutyl)methyl)amino)-2-(2,6-dioxopiperidin-3-yl)isoindoline-1,3-dione]: the IC50 with MV4;11 cells (setting [1]) lay in the range of 10 to 100 nM; in the assay on MV4;11 cells (setting [2]) it was 10 to 100 nM; in the assay with MOLM-13 cells (setting [3]) it was 100 to 1000 nM; in the assay with MOLM-13 cells (setting [4]), 10 to 100 nM.

On to `O=C1CCC(N2C(=O)c3ccc(NC[C@H]4C[C@H](n5cc(-c6cnc7ccc(N8CC(O)C8)cc7n6)c(C6CC6)n5)C4)cc3C2=O)C(=O)N1` (stereo partly drawn) [GS-644, 5-(((Trans-3-(3-cyclopropyl-4-(7-(3-hydroxyazetidin-1-yl)quinoxalin-2-yl)-1H-pyrazol-1-yl)cyclobutyl)methyl)amino)-2-(2,6-dioxopiperidin-3-yl)isoindoline-1,3-dione], for which the IC50 with MV4;11 cells (setting [1]) is 10 to 100 nM; in the assay with MV4;11 cells (setting [2]) it was below 10 nM; in the assay on MOLM-13 cells (setting [3]) it was 10 to 100 nM; in the assay on MOLM-13 cells (setting [4]), below 10 nM.

Consider `O=C1CCC(N2C(=O)c3ccc(NC[C@H]4C[C@H](n5cc(-c6cc7nn([C@H]8CC[C@H](O)CC8)cc7cn6)c(C6CC6)n5)C4)cc3C2=O)C(=O)N1` (stereo partly drawn) [GS-789, 5-(((Trans-3-(3-cyclopropyl-4-(2-(trans-4-hydroxycyclohexyl)-2H-pyrazolo[4,3-c]pyridin-6-yl)-1H-pyrazol-1-yl)cyclobutyl)methyl)amino)-2-(2,6-dioxopiperidin-3-yl)isoindoline-1,3-dione], for which the IC50 in the assay on MV4;11 cells (setting [1]), with MV4;11 cells (setting [2]), with MOLM-13 cells (setting [3]) and with MOLM-13 cells (setting [4]) was below 10 nM each time.

For `Cc1nc(-c2cn(CC3CC3CNc3ccc4c(c3)C(=O)N(C3CCC(=O)NC3=O)C4=O)nc2C2CC2)ccc1F` (stereo not shown) [GS-645, 5-(((2-((3-Cyclopropyl-4-(5-fluoro-6-methylpyridin-2-yl)-1H-pyrazol-1-yl)methyl)cyclopropyl)methyl)amino)-2-(2,6-dioxopiperidin-3-yl)isoindoline-1,3-dione], the IC50 in the assay on MV4;11 cells (setting [1]) was above 1000 nM; with MOLM-13 cells (setting [3]), above 1000 nM; in the assay on MOLM-13 cells (setting [4]), 100 to 1000 nM.

For the origin of these results see patent US20250221988A1 (Cullgen (Shanghai), Inc., priority 2022, published 2025).
